Measured values from patent publication EP4667451A1, “PESTICIDALLY-ACTIVE 2,2-DIHALOCYCLOPROPYL COMPOUNDS” (Syngenta Crop Protection AG, priority 2024, dated 2025).

How the values were obtained:
Assay type in all cases: in vivo
[1] = tested on: Myzus persicae (Green peach aphid); experiment: Myzus persicae (Green peach aphid) intrinsic activity, sucrose solution feeding through Parafilm; conditions: test rate of 12 ppm, assessed 5 days after infestation; for mortality at 12 ppm: Myzus persicae, 120 h
Text: Myzus persicae (Green peach aphid) Intrinsic activity
Test compounds prepared from 10,000 ppm DMSO stock solutions were applied by pipette into 24-well microtiter plates and mixed with sucrose solution. The plates were closed with a stretched Parafilm. A plastic stencil with 24 holes was placed onto the plate and infested pea seedlings were placed directly on the Parafilm. The infested plate was closed with a gel blotting paper and another plastic stencil and then turned upside down. The samples were assessed for mortality 5 days after infestation.

[2] = tested on: Aphis craccivora (Black bean aphid); experiment: Aphis craccivora (Black bean aphid), mixed population, systemic/feeding, pea seedlings in test solutions; conditions: 120 h, application rate of 24 ppm, assessed 5 days later, read-out: growth inhibition
Protocol: Aphis craccivora (Black bean aphid), mixed population, systemic/feeding Pea seedlings infested with mixed aged aphid population, were put into glass vials with test solutions. 5 days later, samples were assessed for mortality.

[3] = tested on: Myzus persicae (Green peach aphid); experiment: Myzus persicae (Green peach aphid) feeding/contact activity, sprayed eggplant leaf discs; conditions: application rate of 200 ppm, assessed 6 days after infestation
Protocol: Myzus persicae (Green peach aphid) Feeding/Contact activity Eggplant leaf discs were placed onto agar in a 24-well microtiter plate and sprayed with aqueous test solutions prepared from 10,000 ppm DMSO stock solutions. After drying, the leaf discs were infested with an aphid population of mixed ages. The samples were assessed for mortality 6 days after infestation.

[4] = tested on: Myzus persicae (Green peach aphid); experiment: Myzus persicae (Green peach aphid) systemic activity, pea seedling roots in test solution; conditions: 144 h, test rate of 24 ppm, assessed 6 days after placing seedlings into test solutions
Protocol: Myzus persicae (Green peach aphid) Systemic activity
Roots of pea seedlings infested with an aphid population of mixed ages were placed directly into aqueous test solutions prepared from 10,000 DMSO stock solutions. The samples were assessed for mortality 6 days after placing seedlings into test solutions.

O=C(NCCCCC1CC1(F)Br)N1CCCCC1 (stereo not shown) [Compound A43, N-[4-(2-bromo-2-fluoro-cyclopropyl)butyl]piperidine-1-carboxamide]
mortality at 12 ppm [1]: ≥ 80%

OCCCCCCC1CC1(F)Br (stereo not shown) [Compound A7, 6-(2-bromo-2-fluoro-cyclopropyl)hexan-1-ol]
inhibition at 24 ppm [2]: ≥ 80%

N-[4-(2-bromo-2-fluoro-cyclopropyl)butyl]-2,3-dihydro-1,4-benzodioxine-5-sulfonamide [Compound A27]
growth inhibition [3]: at least 80%

OCCCCC1CC1(F)Br (stereo not shown) [Compound A9, 4-(2-bromo-2-fluoro-cyclopropyl)butan-1-ol]
mortality at 12 ppm [1]: ≥ 80% | inhibition at 24 ppm [2]: ≥ 80%

O=C(OCCCCCCC1CC1(F)Br)c1ccccc1 (stereo not shown) [Compound A8, 6-(2-bromo-2-fluoro-cyclopropyl)hexyl benzoate]
inhibition at 24 ppm [2]: ≥ 80%

O=C(NCCCCC1CC1(F)Br)C1CC1 (stereo not shown) [Compound A24, N-[4-(2-bromo-2-fluoro-cyclopropyl)butyl]cyclopropanecarboxamide]
inhibition at 200 ppm ([3]; Myzus persicae, foliar, 144 h, read-out: growth inhibition): ≥ 80%

O=C(NCCCCCCC1CC1(F)Br)c1ccccc1 (stereo not shown) [Compound A4, N-[6-(2-bromo-2-fluoro-cyclopropyl)hexyl]benzamide]
mortality at 24 ppm [4]: ≥ 80%

N-[4-(2-bromo-2-fluoro-cyclopropyl)butyl]-3,5-dimethyl-isoxazole-4-sulfonamide [Compound A11]
mortality [1]: at least 80%

N-[4-(2-bromo-2-fluoro-cyclopropyl)butyl]-6-methyl-pyridine-3-sulfonamide [Compound A10]
growth inhibition [3]: at least 80%
